In US20090192169A1, “Bicyclic Benzimidazole Compounds and Their Use as Metabotropic Glutamate Receptor Potentiators” (priority 2006, published 2009):

biological target: T1, human mGluR2 (Homo sapiens, UniProt Q14416); test: [35S]-GTPγS binding assay of mGluR2 receptor activation (allosteric activator activity); assay type: biochemical; conditions: membranes from CHO cells stably expressing human mGluR2; in presence of 1 μM glutamate
T1 construct: expressed in transfected cells
Protocol: A [^35S]-GTPγS binding assay was used to functionally assay mGluR2 receptor activation. The allosteric activator activity of compounds at the human mGluR2 receptor was measured using a [^35S]-GTPγS binding assay with membranes prepared from CHO cells which stably express the human mGluR2. The assay is based upon the principle that agonists bind to G-protein coupled receptors to stimulate GDP-GTP exchange at the G-protein. Since [^35S]-GTPγS is a non-hydrolysable GTP analog, it can be used to provide an index of GDP-GTP exchange and, thus, receptor activation. The GTPγS binding assay therefore provides a quantitative measure of receptor activation.
Membranes were prepared from CHO cells stably transfected with human mGluR2. Membranes (30 μg protein) were incubated with test compound (3 nM to 300 μM) for 15 minutes at room temperature prior to the addition of 1 μM glutamate, and incubated for 30 min at 30° C. in 500 μl assay buffer (20 mM HEPES, 100 mM NaCl, 10 mM MgCl2), containing 30 μM GDP and 0.1 nM [^35S]-GTPγS (1250 Ci/mmol). Reactions were carried out in triplicate in 2 ml polypropylene 96-well plates. Reactions were terminated by vacuum filtration using a Packard 96-well harvester and Unifilter-96, GF/B filter microplates. The filter plates were washed 4×1.5 ml with ice-cold wash buffer ([…] sodium phosphate buffer, pH 7.4). The filter plates were dried and 35 μl of scintillation fluid (Microscint 20) was added to each well. The amount of radioactivity bound was determined by counting plates on the Packard TopCount. Data was analyzed using GraphPad Prism, and EC50 and Emax values (relative to the maximum glutamate effect) were calculated using non-linear regression.

T1 sequence (Q14416 19-872): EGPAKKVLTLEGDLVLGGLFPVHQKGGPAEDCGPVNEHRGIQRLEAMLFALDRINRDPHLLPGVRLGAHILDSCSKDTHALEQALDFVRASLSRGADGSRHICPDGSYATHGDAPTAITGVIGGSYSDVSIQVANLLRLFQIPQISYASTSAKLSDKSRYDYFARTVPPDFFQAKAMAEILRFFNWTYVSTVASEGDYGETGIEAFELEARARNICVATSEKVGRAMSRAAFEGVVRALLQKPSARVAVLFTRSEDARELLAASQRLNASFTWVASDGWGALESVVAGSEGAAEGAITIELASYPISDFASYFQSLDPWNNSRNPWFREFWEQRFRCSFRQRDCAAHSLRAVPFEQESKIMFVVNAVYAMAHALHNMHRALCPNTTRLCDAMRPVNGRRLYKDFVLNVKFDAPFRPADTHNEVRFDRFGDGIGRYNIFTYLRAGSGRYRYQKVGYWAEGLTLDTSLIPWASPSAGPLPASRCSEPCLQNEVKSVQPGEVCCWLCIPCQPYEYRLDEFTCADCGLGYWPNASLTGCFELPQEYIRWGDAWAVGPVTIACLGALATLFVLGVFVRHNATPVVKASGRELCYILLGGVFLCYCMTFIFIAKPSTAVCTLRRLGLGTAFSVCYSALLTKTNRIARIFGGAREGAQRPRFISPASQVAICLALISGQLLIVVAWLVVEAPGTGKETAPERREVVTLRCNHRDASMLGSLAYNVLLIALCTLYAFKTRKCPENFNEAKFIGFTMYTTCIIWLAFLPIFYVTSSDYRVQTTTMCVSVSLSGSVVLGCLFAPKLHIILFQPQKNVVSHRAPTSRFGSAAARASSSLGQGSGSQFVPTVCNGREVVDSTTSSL

EC50 [µM]	Structure (SMILES)
0.0795	Cc1cccc2nc(CN3CCC(c4ccc(F)cc4)CC3)n(C)c12 [Example 1.49, 2-[4-(4-Fluoro-phenyl)-piperidin-1-ylmethyl]-1,7-dimethyl-1H-benzoimidazole]
0.057	Cc1cccc2nc(CN3CCC(CCOc4ccc(F)c(F)c4)CC3)n(C)c12 [Example 1.2, 2-{4-[2-(3,4-Difluoro-phenoxy)-ethyl]-piperidin-1-ylmethyl}-1,7-dimethyl-1H-benzoimidazole]
0.187	Cn1c(CN2CCN(c3ccc(Cl)c(Cl)c3)CC2)nc2ccccc21 [Example 26.8, 2-[4-(3,4-Dichloro-phenyl)-piperazin-1-ylmethyl]-1-methyl-1H-benzoimidazole]

Structure (SMILES)	EC50 [µM]
Cn1c(CN2CCC(O)(c3ccc(Cl)cc3)CC2)nc2ccccc21 [Example 1.75, 4-(4-Chloro-phenyl)-1-(1-methyl-1H-benzoimidazol-2-ylmethyl)-piperidin-4-ol]	8.61
CCn1c(CN2CCC(c3ccccc3)(c3ccccc3)CC2)nc2ccccc21 [Example 1.54, 2-(4,4-Diphenyl-piperidin-1-ylmethyl)-1-ethyl-1H-benzoimidazole]	1.04
